Where two headings read alike, the source gives them in different places.
Tests used:
Test in all cases: MIC and synergy index test in 96 well microtiter plates
Assay type in all cases: cell-based
[1] = system: Staphylococcus aureus ATCC #6538; settings: ATCC6538, 24 h
Method: (§1) Surfactants and biocides were evaluated for synergy by determining the synergy index (S.I.) of the combination. Synergy index was calculated based on minimum inhibitory concentrations (MIC) of two antimicrobial compounds (A and B) alone and in combinations. The tests organisms were Gram negative bacteria (Pseudomonas aeruginosa ATCC #15442), Gram positive bacteria (Staphylococcus aureus ATCC #6538), yeast (Candida albicans ATCC#10203) and mold (Aspergillus niger ATCC#16404). Contact time for the bacteria was 24 and 48 hours, yeast was 48 and 72 hrs, and 3 and 7 days for mold. The test was carried out in 96 well microtiter plates. • Surf. A R^1O(CH2CH(CH3)O)5(CH2CH2O)9H, where R^1 is 2-ethylhexyl • Surf. D R^2O(CH2CH(CH3)O)3(CH2CH2O)5H • Surf. E R^2O(CH2CH(CH3)O)3(CH2CH2O)7H • In Surf. D and Surf. E, R^2 is a mixture of C8-C14 linear alkyl groups (70% C8-C10 linear alkyl and 30% C12-C14 linear alkyl)
(§2) The pH of the Triptic soy broth was 7.3 and the Potato dextrose broth was 5.1.
(§3) SI is calculated as follows: Ca/CA+Cb/CB=Synergy Index(“SI”)
(§4) Wherein: • CA=concentration of compound A in ppm, acting alone, which produced an end point (MIC of Compound A). • Ca=concentration of compound A in ppm, in the mixture, which produced an end point. • CB=concentration of compound B in ppm, acting alone, which produced an end point (MIC of Compound B). • Cb=concentration of compound B in ppm, in the mixture, which produced an end point.
(§5) When the sum of Ca/CA and Cb/CB is greater than one, antagonism is indicated.

[2] = system: Aspergillus niger ATCC#16404; settings: PDB
Method: as §1, §2, §3, §4, §5

[3] = system: Candida albicans ATCC#10203; settings: PDB
Method: as §1, §2, §3, §4, §5

[4] = system: Pseudomonas aeruginosa ATCC #15442; settings: 1/10 TSB
Method: as §1, with “Contact time for the bacteria was 24 and 48 hours, yeast was 48 and 72 hrs, and 3 and 7 days for mold.” left out
as §2, §3, §4, §5

## CC1(C)COCN1 [DMO, 4,4-dimethyloxazolidine]
[1]; A: Surf. D, B: 1135, S. aureus ATCC#6538, 24 hrs, 1/10 TSB, inoculum 1.16E+08, read-out: CB (MIC of compound B acting alone)
  MIC: 80 µg/mL
[1]; A: Surf. E, B: DMO, ATCC# 6538, 24 hrs, 1/10 TSB, inoculum 1.80E+06 CFU/ml, read-out: CB (MIC of compound B acting alone)
  MIC: 80 µg/mL
[1]; read-out: CB (MIC of compound B acting alone)
  MIC: 50 µg/mL
[2]; ATCC16404, A: Surf. A, B: DMO, A. niger ATCC#16404, 3rd Day, inoculum 1.156E+06 CFU/ml, read-out: CB (MIC of compound B acting alone)
  MIC: 60 µg/mL
[2]; ATCC16404, A: Surf. D, B: DMO, A. niger ATCC# 16404, 3rd day, inoculum 1.156E+06, read-out: CB (MIC of compound B acting alone)
  MIC: 400 µg/mL
[2]; ATCC16404, A: Surf. E, B: DMO, A. niger ATCC#16404, 3rd Day, inoculum 1.56E+06 CFU/ml, read-out: CB (MIC of compound B acting alone)
  MIC: 800 µg/mL
[3]; ATCC10203, 48 h, A: Surf. E, B: DMO, C. albicans ATCC#10203, 48 hrs, inoculum 1808E+06, read-out: CB (MIC of compound B acting alone)
  MIC: 1000 µg/mL
[3]; ATCC 10203 / ATCC 10231, 48 h, A: Surf. D, B: DMO, C. albicans ATCC#10231, 48 hrs, inoculum 5.726E+05 CFU/ml, read-out: CB (MIC of compound B acting alone)
  MIC: 1000 µg/mL
[3]; ATCC 10203 / ATCC 10231, A: Surf. A, B: DMO, C. albicans ATCC#10231, 3rd Day, inoculum 1.156E+06 CFU/ml, read-out: CB (MIC of compound B acting alone)
  MIC: 1000 µg/mL
[4]; ATCC15442, 24 h, A: Surf. A, B: DMO, P. aeruginosa ATCC#15442, 24 hrs, inoculum 8.134+07 CFU/ml, read-out: CB (MIC of compound B acting alone)
  MIC: 80 µg/mL

## O=[N+]([O-])C(CO)(CO)CO [Tris Nitro, tris(hydroxymethyl)nitromethane]
[1]; A: Surf. E, B: TrisNitro, S. aureus ATCC# 6538, 24 hrs, 1/10 TSB, inoculum 1.808E+06 CFU/ml, read-out: CB (MIC of compound B acting alone)
  MIC: 500 µg/mL
[4]; ATCC15442, 24 h, A: Surf. D, B: TrisNitro, Ps. aeruginosa ATCC#15442, 24 hrs, inoculum 1.16E+08, read-out: CB (MIC of compound B acting alone)
  MIC: 800 µg/mL
[4]; ATCC15442, 24 h, A: Surf. E, B: TrisNitro, Ps. aeruginosa ATCC#15442, 24 hrs, inoculum 5.727E+07 CFU/ml, read-out: CB (MIC of compound B acting alone)
  MIC: 1000 µg/mL

## Cl/C=C\C[N+]12CN3CN(CN(C3)C1)C2.[Cl-] [CTAC, cis-1-(3-chloroallyl)-3,5,7-triaza-1-azoniaadamantane chloride]
[1]; A: Surf. D, B: CTAC, S. aureus ATCC# 6538, 24 hrs, 1/10 TSB, inoculum 1.808E+05, read-out: CB (MIC of compound B acting alone)
  MIC: 300 µg/mL
[1]; A: Surf. E, B: CTAC, S. aureus ATCC# 6538, 24 hrs, 1/10 TSB, inoculum 1.8E+06, read-out: CB (MIC of compound B acting alone)
  MIC: 200 µg/mL
[2]; ATCC16404, A: Surf. D, B: CTAC, A. niger ATCC#16404, 3rd day, inoculum 1.156E+06, read-out: CB (MIC of compound B acting alone)
  MIC: 1000 µg/mL
[3]; ATCC10203, 48 h, A: Surf. D, B: CTAC, C. albicans ATCC#10203, 48 hrs, inoculum 5.726E+05 CFU/ml, read-out: CB (MIC of compound B acting alone)
  MIC: 1000 µg/mL
[3]; ATCC10203, 48 h, A: Surf. E, B: CTAC, C. albicans ATCC 10203, 48 hrs, inoculum 1.808E+05, read-out: CB (MIC of compound B acting alone)
  MIC: 3000 µg/mL
[4]; ATCC15442, 72 h, A: Surf. A, B: CTAC, P. aeruginosa ATCC#15442, 3rd Day, inoculum 1.156E+06, read-out: CB (MIC of compound B acting alone)
  MIC: 600 µg/mL
